Assay: xn = mol fraction of the nth substance listed
Details: 100 kPa, Liquid; for viscosity: Concentric cylinders viscometry; for mass density: Vibrating tube method

CCCCn1cc[n+](C)c1.F[P-](F)(F)(F)(F)F [1-butyl-3-methylimidazolium hexafluorophosphate] + CCCC[n+]1ccn(C)c1.O=S(=O)([N-]S(=O)(=O)C(F)(F)F)C(F)(F)F
Details	mass density, x2 = 0 [kg/m3]	mass density, x2 = 0.25 [kg/m3]	mass density, x2 = 0.5 [kg/m3]	mass density, x2 = 0.748 [kg/m3]	viscosity, x2 = 0 [mPa·s]	viscosity, x2 = 0.25 [mPa·s]	viscosity, x2 = 0.5 [mPa·s]	viscosity, x2 = 0.748 [mPa·s]
283.15 K	1379.9	1402.5	1421.1	1437.4	794.33	360.25	221.31	148.25
288.15 K	1376.5	1398.3	1417.2	1433.1	557.27	264.71	166.04	112.57
293.15 K	1372	1393.8	1412.6	1428.4	393.86	196.39	126.16	87.23
298.15 K	1367.6	1389.4	1408	1423.7	285.02	148.96	97.74	68.88
303.15 K	1363.4	1385	1403.5	1419	210.93	115.08	77.09	55.3
308.15 K	1359.2	1380.7	1399	1414.3	159.46	90.44	61.82	45.08
313.15 K	1355.1	1376.4	1394.5	1409.7	122.78	72.18	50.31	37.25
318.15 K	1351	1372.1	1390	1405.1	96.28	58.45	41.52	31.17
323.15 K	1347	1367.9	1385.6	1400.5	76.72	47.96	34.68	26.38
328.15 K	1342.9	1363.6	1381.2	1395.9	62.04	39.84	29.3	22.56
333.15 K	1338.9	1359.4	1376.7	1391.3	50.85	33.47	25	19.47
338.15 K	1334.9	1355.2	1372.3	1386.8	42.2	28.39	21.53	16.96
343.15 K	1330.9	1351	1368	1382.3	35.43	24.3	18.7	14.88
348.15 K	1326.9	1346.9	1363.6	1377.9	30.04	20.99	16.38	13.15
353.15 K	1323	1342.7	1359.3	1373.4	25.72	18.29	14.44	11.7
358.15 K	1319	1338.6	1355.1	1369	22.22	16.04	12.82	10.47
363.15 K	1315.2	1334.6	1350.8	1364.6	19.36	14.17	11.46	9.428

CCCCn1cc[n+](C)c1.COP(=O)([O-])OC [1-butyl-3-methyl-1H-imidazolium dimethylphosphate] + CCCC[n+]1ccn(C)c1.O=S(=O)([N-]S(=O)(=O)C(F)(F)F)C(F)(F)F
Details	mass density, x2 = 0 [kg/m3]	mass density, x2 = 0.25 [kg/m3]	mass density, x2 = 0.501 [kg/m3]	mass density, x2 = 0.747 [kg/m3]	viscosity, x2 = 0 [mPa·s]	viscosity, x2 = 0.25 [mPa·s]	viscosity, x2 = 0.501 [mPa·s]	viscosity, x2 = 0.747 [mPa·s]
283.15 K	1168.4	1251	1325.1	1390.6	2315.6	1433.7	630.61	251.51
288.15 K	1164.9	1247	1320.6	1386	1454.6	930.25	433.3	183.6
293.15 K	1161.4	1243.1	1316.2	1381.5	943.97	618.01	301.49	137.3
298.15 K	1157.9	1239.1	1312	1377	641.71	432.55	222.26	104.86
303.15 K	1154.3	1235.2	1307.8	1372.5	446.92	307.85	165.15	81.71
308.15 K	1150.9	1231.4	1303.7	1368.1	319.33	224.53	125.35	64.81
313.15 K	1147.6	1227.7	1299.7	1363.6	232.1	166.25	96.27	52.46
318.15 K	1144.3	1224.1	1295.6	1359.2	174.7	127.53	76.39	42.72
323.15 K	1141	1220.4	1291.6	1354.8	133.37	98.92	61.14	35.4
328.15 K	1137.8	1216.8	1287.6	1350.4	103.62	78.04	49.65	29.69
333.15 K	1134.6	1213.2	1283.5	1346	81.97	62.7	41.07	25.42
338.15 K	1131.4	1209.7	1279.5	1341.7	65.62	50.83	34.05	21.56
343.15 K	1128.3	1206.1	1275.6	1337.4	53.39	41.87	28.69	18.63
348.15 K	1125.1	1202.5	1271.6	1333.1	44.01	34.9	24.42	16.23
353.15 K	1122	1199	1267.7	1328.8	37.08	29.8	21.36	14.57
358.15 K	1118.9	1195.5	1263.7	1324.6	30.94	25.03	18.18	12.61
363.15 K	1115.7	1192	1259.9	1320.4	26.33	21.5	15.88	11.22

CCCCn1cc[n+](C)c1.N#CN=C=[N-] [1-butyl-3-methylimidazolium dicyanamide] + CCCC[n+]1ccn(C)c1.O=S(=O)([N-]S(=O)(=O)C(F)(F)F)C(F)(F)F
Details	mass density, x2 = 0 [kg/m3]	mass density, x2 = 0.251 [kg/m3]	mass density, x2 = 0.457 [kg/m3]	mass density, x2 = 0.749 [kg/m3]	viscosity, x2 = 0 [mPa·s]	viscosity, x2 = 0.251 [mPa·s]	viscosity, x2 = 0.457 [mPa·s]	viscosity, x2 = 0.749 [mPa·s]
283.15 K	1070	1194.3	1280.8	1381.8	58.35	72.33	82.5	95.81
288.15 K	1066.7	1190.5	1276.6	1377.2	45.91	56.47	64.11	73.99
293.15 K	1063.4	1186.7	1272.5	1372.7	36.83	44.98	50.83	58.31
298.15 K	1060.2	1183	1268.5	1368.1	30.08	36.45	41.02	46.82
303.15 K	1057	1179.3	1264.4	1363.6	24.94	30.02	33.66	38.18
308.15 K	1053.8	1175.7	1260.4	1359.2	20.98	25.08	28.01	31.61
313.15 K	1050.6	1172	1256.4	1354.7	17.86	21.22	23.6	26.5
318.15 K	1047.5	1168.4	1252.4	1350.3	15.38	18.16	20.12	22.48
323.15 K	1044.4	1164.9	1248.5	1345.9	13.38	15.7	17.33	19.27
328.15 K	1041.3	1161.3	1244.6	1341.5	11.74	13.69	15.06	16.68
333.15 K	1038.2	1157.8	1240.7	1337.2	10.38	12.05	13.27	14.56
338.15 K	1035.2	1154.3	1236.8	1332.9	9.251	10.68	11.72	12.82
343.15 K	1032.1	1150.8	1233	1328.6	8.298	9.53	10.43	11.36
348.15 K	1029.1	1147.3	1229.2	1324.3	7.488	8.56	9.335	10.14
353.15 K	1026.1	1143.8	1225.4	1320	6.794	7.728	8.408	9.098
358.15 K	1023.2	1140.4	1221.6	1315.8	6.196	7.016	7.615	8.211
363.15 K	1020.3	1137	1217.9	1311.6	5.677	6.403	6.932	7.449
